From patent publication US12660819B2, “Herbicidal derivatives” (SYNGENTA CROP PROTECTION AG, priority 2020, dated 2026)

Key:
Format in all cases: in vivo
[1] = system: Echinochloa crus-galli (ECHCG); assay: Pre-emergence Test (glasshouse, percentage damage to the plant); details: 1000 g/ha unless otherwise stated, five-point scale
[2] = system: Ipomoea hederacea (IPOHE); assay: Post-emergence Test (glasshouse, percentage damage to the plant); details: post-emergence spray, 1000 g/ha unless otherwise stated, evaluated after 13 days
Outline: (§1)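 Percentage damage to the plant, assessed 13 days after application and scored 1–5 in 20% bands. Pots sown in standard soil received compound at 1000 g/ha unless otherwise stated, sprayed under 24/16 °C, 14 h light, 65% humidity.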

[3] = system: Abutilon theophrasti (ABUTH); assay: as above; details: post-emergence spray, 1000 g/ha unless otherwise stated, evaluated after 13 days
Outline: (§2)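 Damage was rated 13 days after treatment and expressed on a five-point scale: 5=81-100%, 4=61-80%, 3=41-60%, 2=21-40%, 1=0-20%. Spray was applied at 1000 g/ha unless otherwise stated, from acetone/water (50:50) with 0.5% Tween 20, to sown pots.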

Zea mays (ZEAMX) [4] = assay: as above; details: post-emergence spray, 1000 g/ha unless otherwise stated, evaluated after 13 days
Outline: as §1

[5] = system: Echinochloa crus-galli (ECHCG); assay: as above; details: post-emergence spray, 1000 g/ha unless otherwise stated, evaluated after 13 days
Outline: as §2

[6] = system: Amaranthus retoflexus (AMARE); assay: as above; details: post-emergence spray, 1000 g/ha unless otherwise stated, evaluated after 13 days
Outline: as §2

Setaria faberi (SETFA) [7] = assay: as above; details: post-emergence spray, 1000 g/ha unless otherwise stated, evaluated after 13 days
Outline: as §1

[8] = system: Ipomoea hederacea (IPOHE); assay: Pre-emergence Test (glasshouse, percentage damage to the plant); details: 1000 g/ha unless otherwise stated, five-point scale
Setaria faberi (SETFA) [9] = assay: as above; details: 1000 g/ha unless otherwise stated, five-point scale
[10] = system: Amaranthus retoflexus (AMARE); assay: as above; details: 1000 g/ha unless otherwise stated, five-point scale
[11] = system: Abutilon theophrasti (ABUTH); assay: as above; details: 1000 g/ha unless otherwise stated, five-point scale
Zea mays (ZEAMX) [12] = assay: as above; details: 1000 g/ha unless otherwise stated, five-point scale

| SMILES | percentage damage to the plant, ECHCG [1] | Post-emergence Test IPOHE, percentage damage to the plant (five-point scale) [2] | Post-emergence Test ABUTH, percentage damage to the plant (five-point scale) [3] | Post-emergence Test ZEAMX, percentage damage to the plant (five-point scale) (Zea mays (ZEAMX) [4]) | Post-emergence Test ECHCG, percentage damage to the plant (five-point scale) [5] | Post-emergence Test AMARE, percentage damage to the plant (five-point scale) [6] | Post-emergence Test SETFA, percentage damage to the plant (five-point scale) (Setaria faberi (SETFA) [7]) | percentage damage to the plant, IPOHE [8] | percentage damage to the plant, SETFA (Setaria faberi (SETFA) [9]) | percentage damage to the plant, AMARE [10] | percentage damage to the plant, ABUTH [11] | percentage damage to the plant, ZEAMX (Zea mays (ZEAMX) [12]) |
| --- | --- | --- | --- | --- | --- | --- | --- | --- | --- | --- | --- | --- |
| CCOc1cccc(-c2c(C)n(CC)c(-c3ccc(Cl)c(Cl)c3)c(C(=O)O)c2=O)c1 [Compound 98, 2-(3,4-dichlorophenyl)-5-(3-ethoxyphenyl)-1-ethyl-6-methyl-4-oxo-pyridine-3-carboxylic acid] | 1 (1=0-20%) | 2 (2=21-40%) | 2 (2=21-40%) | 1 (1=0-20%) | 1 (1=0-20%) | 1 (1=0-20%) | 1 (1=0-20%) | 1 (1=0-20%) | 3 (3=41-60%) | 2 (2=21-40%) | 1 (1=0-20%) | 1 (1=0-20%) |
| CCn1c(C)c(-c2cnc(F)c(F)c2)c(=O)c(C(=O)O)c1-c1ccc(Cl)c(Cl)c1 [Compound 59, 2-(3,4-dichlorophenyl)-5-(5,6-difluoro-3-pyridyl)-1-ethyl-6-methyl-4-oxo-pyridine-3-carboxylic acid] | 2 (2=21-40%) | 3 (3=41-60%) | 3 (3=41-60%) | 3 (3=41-60%) | 3 (3=41-60%) | 3 (3=41-60%) | 4 (4=61-80%) | 3 (3=41-60%) | 4 (4=61-80%) | 1 (1=0-20%) | 3 (3=41-60%) | 1 (1=0-20%) |
| CCn1c(C)c(-c2ccc(Cl)cc2)c(=O)c(C(=O)O)c1-c1ccc(Br)c(F)c1 [Compound 129, 2-(4-bromo-3-fluoro-phenyl)-5-(4-chlorophenyl)-1-ethyl-6-methyl-4-oxo-pyridine-3-carboxylic acid] | 2 (2=21-40%) | 3 (3=41-60%) | 3 (3=41-60%) | 2 (2=21-40%) | 2 (2=21-40%) | 3 (3=41-60%) | 3 (3=41-60%) | 2 (2=21-40%) | 5 (5=81-100%) | 5 (5=81-100%) | 2 (2=21-40%) | 1 (1=0-20%) |
| CCn1c(C)c(-c2cncc(OC)c2)c(=O)c(C(=O)O)c1-c1ccc(Cl)c(Cl)c1 [Compound 61, 2-(3,4-dichlorophenyl)-1-ethyl-5-(5-methoxy-3-pyridyl)-6-methyl-4-oxo-pyridine-3-carboxylic acid] | 1 (1=0-20%) | 1 (1=0-20%) | 2 (2=21-40%) | 1 (1=0-20%) | 1 (1=0-20%) | 1 (1=0-20%) | 3 (3=41-60%) | 1 (1=0-20%) | 4 (4=61-80%) | 1 (1=0-20%) | 2 (2=21-40%) | 1 (1=0-20%) |
| CCn1c(C)c(-c2ccc(C(C)=O)cc2)c(=O)c(C(=O)O)c1-c1ccc(Cl)c(Cl)c1 [Compound 90, 5-(4-acetylphenyl)-2-(3,4-dichlorophenyl)-1-ethyl-6-methyl-4-oxo-pyridine-3-carboxylic acid] | 1 (1=0-20%) | 2 (2=21-40%) | 1 (1=0-20%) | 1 (1=0-20%) | 1 (1=0-20%) | 1 (1=0-20%) | 2 (2=21-40%) | 1 (1=0-20%) | 3 (3=41-60%) | 1 (1=0-20%) | 1 (1=0-20%) | 1 (1=0-20%) |
| CCn1c(C)c(-c2ccc(C#N)cc2)c(=O)c(C(=O)O)c1-c1ccnc(Cl)c1 [Compound 142, 2-(2-chloro-4-pyridyl)-5-(4-cyanophenyl)-1-ethyl-6-methyl-4-oxo-pyridine-3-carboxylic acid] | 1 (1=0-20%) | 2 (2=21-40%) | 1 (1=0-20%) | 1 (1=0-20%) | 3 (3=41-60%) | 0 | 2 (2=21-40%) | 0 | 1 (1=0-20%) | 0 | 0 | 0 |
| CCn1c(C)c(-c2cc(Cl)cc(C(F)(F)F)c2)c(=O)c(C(=O)O)c1-c1ccc(Cl)c(Cl)c1 [Compound 82, 5-[3-chloro-5-(trifluoromethyl)phenyl]-2-(3,4-dichlorophenyl)-1-ethyl-6-methyl-4-oxo-pyridine-3-carboxylic acid] | 1 (1=0-20%) | 1 (1=0-20%) | 2 (2=21-40%) | 1 (1=0-20%) | 1 (1=0-20%) | 1 (1=0-20%) | 1 (1=0-20%) | 1 (1=0-20%) | 2 (2=21-40%) | 2 (2=21-40%) | 1 (1=0-20%) | 1 (1=0-20%) |
| CCn1c(C)c(-c2cccs2)c(=O)c(C(=O)O)c1-c1ccc(Cl)cc1 [Compound 165, 2-(4-chlorophenyl)-1-ethyl-6-methyl-4-oxo-5-(2-thienyl)pyridine-3-carboxylic acid] | 0 | 2 (2=21-40%) | 2 (2=21-40%) | 1 (1=0-20%) | 0 | 0 | 1 (1=0-20%) | 1 (1=0-20%) | 0 | 1 (1=0-20%) | 1 (1=0-20%) | 0 |
| CCn1c(C)c(-c2ccc(Cl)cc2)c(=O)c(C(=O)O)c1-c1ccc(F)c(F)c1 [Compound 128, 5-(4-chlorophenyl)-2-(3,4-difluorophenyl)-1-ethyl-6-methyl-4-oxo-pyridine-3-carboxylic acid] | 2 (2=21-40%) | 2 (2=21-40%) | 4 (4=61-80%) | 3 (3=41-60%) | 3 (3=41-60%) | 3 (3=41-60%) | 4 (4=61-80%) | 1 (1=0-20%) | 5 (5=81-100%) | 4 (4=61-80%) | 3 (3=41-60%) | 2 (2=21-40%) |
| CCOc1ccc(-c2c(C)n(CC)c(-c3ccc(Cl)c(Cl)c3)c(C(=O)O)c2=O)cc1 [Compound 96, 2-(3,4-dichlorophenyl)-5-(4-ethoxyphenyl)-1-ethyl-6-methyl-4-oxo-pyridine-3-carboxylic acid] | 1 (1=0-20%) | 3 (3=41-60%) | 4 (4=61-80%) | 2 (2=21-40%) | 2 (2=21-40%) | 1 (1=0-20%) | 3 (3=41-60%) | 1 (1=0-20%) | 2 (2=21-40%) | 1 (1=0-20%) | 1 (1=0-20%) | 1 (1=0-20%) |
